Values after ≈ are worked out from the molar mass of the structure shown.
Assays:
Aspergillus niger [1] = experiment: Antimicrobial activity against Aspergillus niger ATCC 16404 after 48 hr by two-fold serial dilution method; format: functional; settings: ATCC 16404, 48 h
Bacillus spizizenii [2] = experiment: Antimicrobial activity against Bacillus subtilis subsp. spizizenii ATCC 6633 after 24 hr by agar cup diffusion technique; format: functional
Staphylococcus aureus [3] = experiment: Antimicrobial activity against Staphylococcus aureus NCTC 4163 after 24 hr by agar cup diffusion technique; format: functional
Aspergillus niger [4] = experiment: Antimicrobial activity against Aspergillus niger ATCC 16404 after 48 hr by agar cup diffusion technique; format: functional
Candida albicans [5] = experiment: Antimicrobial activity against Candida albicans NCTC 2708 after 48 hr by agar cup diffusion technique; format: functional
Saccharomyces cerevisiae [6] = experiment: Antimicrobial activity against Saccharomyces cerevisiae ATCC 9763 after 48 hr by agar cup diffusion technique; format: functional
Proteus vulgaris [7] = experiment: Antimicrobial activity against Proteus vulgaris ATCC 49132 after 24 hr by two-fold serial dilution method; format: functional; settings: ATCC 49132, 24 h
Pseudomonas aeruginosa [8] = experiment: Antimicrobial activity against Pseudomonas aeruginosa ATCC 9027 after 24 hr by two-fold serial dilution method; format: functional; settings: ATCC 9027, 24 h
Proteus vulgaris [9] = experiment: Antimicrobial activity against Proteus vulgaris ATCC 49132 after 24 hr by agar cup diffusion technique; format: functional
Escherichia coli [10] = experiment: Antimicrobial activity against Escherichia coli 5933 after 24 hr by agar cup diffusion technique; format: functional
Pseudomonas aeruginosa [11] = experiment: Antimicrobial activity against Pseudomonas aeruginosa ATCC 9027 after 24 hr by agar cup diffusion technique; format: functional
Salmonella typhi [12] = experiment: Antimicrobial activity against Salmonella enterica subsp. enterica serovar Typhi ATCC 13311 after 24 hr by agar cup diffusion technique; format: functional
Aspergillus terreus [13] = experiment: Antimicrobial activity against Aspergillus terreus after 48 hr by agar cup diffusion technique; format: functional
Escherichia coli [14] = experiment: Antimicrobial activity against Escherichia coli 5933 after 24 hr by two-fold serial dilution method; format: functional; settings: Escherichia coli, 5933, 24 h
Bacillus spizizenii [15] = experiment: Antimicrobial activity against Bacillus subtilis subsp. spizizenii ATCC 6633 after 24 hr by two-fold serial dilution method; format: functional; settings: ATCC 6633, 24 h
Staphylococcus aureus [16] = experiment: Antimicrobial activity against Staphylococcus aureus NCTC 4163 after 24 hr by two-fold serial dilution method; format: functional; settings: NCTC 4163, 24 h
CCRF-CEM = experiment: Cytotoxicity against Homo sapiens (human) CEM cells by XTT assay; format: cell-based
[17] = system: Human immunodeficiency virus 1; experiment: Antiviral activity against Human immunodeficiency virus 1 infected CEM cells assessed as inhibition of virus-induced cytopathic effect at 2 X 10^-4 M by XTT assay; format: functional; settings: Human immunodeficiency virus 1, CCRF-CEM
Salmonella typhi [18] = experiment: Antimicrobial activity against Salmonella enterica subsp. enterica serovar Typhi ATCC 13311 after 24 hr by two-fold serial dilution method; format: functional; settings: ATCC 13311, 24 h
Aspergillus terreus [19] = experiment: Antimicrobial activity against Aspergillus terreus after 48 hr by two-fold serial dilution method; format: functional
Saccharomyces cerevisiae [20] = experiment: Antimicrobial activity against Saccharomyces cerevisiae ATCC 9763 after 48 hr by two-fold serial dilution method; format: functional; settings: ATCC 9763, 48 h
Candida albicans [21] = experiment: Antimicrobial activity against Candida albicans NCTC 2708 after 48 hr by two-fold serial dilution method; format: functional; settings: NCTC 2708, 48 h

How did the MIC (Aspergillus niger [1]) turn out when `Cn1c(=O)c2c(n(C)c1=O)n1c(-c3ccc(Br)cc3)nnc1n2C` was run?
Its MIC is less than 100 µg/mL.

What about the “inhibition zone (IZ)” value (Bacillus spizizenii [2]) of the same compound?
The value was 11 mm.

And the “inhibition zone (IZ)” value (Staphylococcus aureus [3])?
The value was 14 mm.

What about the “inhibition zone (IZ)” value (Aspergillus niger [4]) of the same compound?
The value was 22 mm.

And the “inhibition zone (IZ)” value (Candida albicans [5])?
Its value is 14 mm.

What about the “inhibition zone (IZ)” value (Saccharomyces cerevisiae [6]) of the same compound?
The value was 13 mm.

And the MIC (Proteus vulgaris [7])?
The MIC was less than 100 µg/mL.

What about the MIC (Pseudomonas aeruginosa [8]) of the same compound?
The MIC was less than 200 µg/mL.

And the “inhibition zone (IZ)” value (Proteus vulgaris [9])?
Its value is 22 mm.

And the “inhibition zone (IZ)” value (Escherichia coli [10])?
The value was 12 mm.

And the “inhibition zone (IZ)” value (Pseudomonas aeruginosa [11])?
The value was 20 mm.

For `COc1ccc(-c2nnc3n(C)c4c(=O)n(C)c(=O)n(C)c4n23)cc1`, which “inhibition zone (IZ)” value (Salmonella typhi [12]) is on record?
Its value is 17 mm.

And the “inhibition zone (IZ)” value (Bacillus spizizenii [2])?
The value was 20 mm.

What about the “inhibition zone (IZ)” value (Staphylococcus aureus [3]) of the same compound?
Its value is 14 mm.

And the “inhibition zone (IZ)” value (Aspergillus terreus [13])?
The value was 16 mm.

And the “inhibition zone (IZ)” value (Candida albicans [5])?
The value was 18 mm.

What about the “inhibition zone (IZ)” value (Saccharomyces cerevisiae [6]) of the same compound?
Its value is 16 mm.

What about the MIC (Proteus vulgaris [7]) of the same compound?
Its MIC is less than 50 µg/mL.

And the MIC (Escherichia coli [14])?
Its MIC is less than 200 µg/mL.

What about the MIC (Pseudomonas aeruginosa [8]) of the same compound?
The MIC was less than 200 µg/mL.

And the MIC (Bacillus spizizenii [15])?
Its MIC is less than 200 µg/mL.

What about the “inhibition zone (IZ)” value (Proteus vulgaris [9]) of the same compound?
The value was 28 mm.

And the “inhibition zone (IZ)” value (Escherichia coli [10])?
The value was 20 mm.

What about the “inhibition zone (IZ)” value (Pseudomonas aeruginosa [11]) of the same compound?
The value was 21 mm.

With `Cn1c(=O)c2c(n(C)c1=O)n1c(=S)[nH]nc1n2C` as the compound, how does the “inhibition zone (IZ)” value (Bacillus spizizenii [2]) read?
Its value is 11 mm.

What about the “inhibition zone (IZ)” value (Staphylococcus aureus [3]) of the same compound?
The value was 24 mm.

And the “inhibition zone (IZ)” value (Candida albicans [5])?
Its value is 11 mm.

And the “inhibition zone (IZ)” value (Saccharomyces cerevisiae [6])?
The value was 12 mm.

And the MIC (Pseudomonas aeruginosa [8])?
The MIC was less than 100 µg/mL.

And the MIC (Staphylococcus aureus [16])?
Its MIC is less than 50 µg/mL.

What about the “inhibition zone (IZ)” value (Proteus vulgaris [9]) of the same compound?
Its value is 19 mm.

What about the “inhibition zone (IZ)” value (Escherichia coli [10]) of the same compound?
Its value is 12 mm.

And the “inhibition zone (IZ)” value (Pseudomonas aeruginosa [11])?
The value was 21 mm.

How did the IC50 (CCRF-CEM) turn out when `CSc1nnc2n(C)c3c(=O)n(C)c(=O)n(C)c3n12` was run?
The IC50 was greater than 200 µM.

What about the “inhibition zone (IZ)” value (Staphylococcus aureus [3]) of the same compound?
Its value is 20 mm.

And the “inhibition zone (IZ)” value (Candida albicans [5])?
The value was 11 mm.

What about the “inhibition zone (IZ)” value (Saccharomyces cerevisiae [6]) of the same compound?
Its value is 12 mm.

And the MIC (Pseudomonas aeruginosa [8])?
The MIC was less than 200 µg/mL.

And the MIC (Staphylococcus aureus [16])?
The MIC was less than 200 µg/mL.

What about the “inhibition zone (IZ)” value (Proteus vulgaris [9]) of the same compound?
Its value is 19 mm.

And the “inhibition zone (IZ)” value (Escherichia coli [10])?
Its value is 12 mm.

And the “inhibition zone (IZ)” value (Pseudomonas aeruginosa [11])?
The value was 20 mm.

What about the inhibition at 200 µM [17] of the same compound?
Its inhibition at 200 µM is 4.86%.

How did the “inhibition zone (IZ)” value (Bacillus spizizenii [2]) turn out when `CCSc1nnc2n(C)c3c(=O)n(C)c(=O)n(C)c3n12` was run?
The value was 13 mm.

And the “inhibition zone (IZ)” value (Staphylococcus aureus [3])?
Its value is 20 mm.

What about the “inhibition zone (IZ)” value (Candida albicans [5]) of the same compound?
Its value is 11 mm.

What about the “inhibition zone (IZ)” value (Saccharomyces cerevisiae [6]) of the same compound?
Its value is 13 mm.

What about the MIC (Staphylococcus aureus [16]) of the same compound?
Its MIC is less than 200 µg/mL.

And the “inhibition zone (IZ)” value (Proteus vulgaris [9])?
The value was 19 mm.

And the “inhibition zone (IZ)” value (Escherichia coli [10])?
The value was 12 mm.

What about the “inhibition zone (IZ)” value (Pseudomonas aeruginosa [11]) of the same compound?
The value was 19 mm.

For `Cn1c(=O)c2c(n(C)c1=O)n1c(SCc3ccccc3)nnc1n2C`, which IC50 (CCRF-CEM) is on record?
The IC50 was greater than 200 µM.

And the “inhibition zone (IZ)” value (Staphylococcus aureus [3])?
The value was 26 mm.

What about the “inhibition zone (IZ)” value (Candida albicans [5]) of the same compound?
Its value is 11 mm.

What about the “inhibition zone (IZ)” value (Saccharomyces cerevisiae [6]) of the same compound?
Its value is 14 mm.

What about the MIC (Staphylococcus aureus [16]) of the same compound?
Its MIC is less than 25 µg/mL.

And the “inhibition zone (IZ)” value (Proteus vulgaris [9])?
Its value is 18 mm.

And the “inhibition zone (IZ)” value (Escherichia coli [10])?
The value was 12 mm.

And the “inhibition zone (IZ)” value (Pseudomonas aeruginosa [11])?
Its value is 19 mm.

What about the inhibition at 200 µM [17] of the same compound?
The inhibition at 200 µM was 35.5%.

Which results are given for `CC1(C)S[C@@H]2[C@H](NC(=O)[C@H](N)c3ccccc3)C(=O)N2[C@H]1C(=O)O` [AMPICILLIN]?
MIC (Proteus vulgaris [7]): 50 µg/mL (≈ 143 µM); MIC (Pseudomonas aeruginosa [8]): 100 µg/mL (≈ 286 µM); MIC (Salmonella typhi [18]): 100 µg/mL (≈ 286 µM); MIC (Staphylococcus aureus [16]): 5 µg/mL (≈ 14.3 µM); MIC (Bacillus spizizenii [15]): 5 µg/mL (≈ 14.3 µM)

What does the source list for `Clc1ccccc1C(c1ccccc1)(c1ccccc1)n1ccnc1` [CLOTRIMAZOLE]?
MIC (Aspergillus terreus [19]): 10 µg/mL (≈ 29 µM); MIC (Aspergillus niger [1]): 10 µg/mL (≈ 29 µM); MIC (Saccharomyces cerevisiae [20]): 5 µg/mL (≈ 14.5 µM); MIC (Candida albicans [21]): 5 µg/mL (≈ 14.5 µM)

Source: ChEMBL document CHEMBL3046414, “Synthesis, anticancer, anti-HIV-1, and antimicrobial activity of some tricyclic triazino and triazolo[4,3-e]purine derivatives” (Med Chem Res, 2012)
